pIC50, pKi: −log10 of the molar value. Where two headings read alike, the source gives them in different places.
Columns and labels:
[1] = target: human recombinant 5-HT2A receptor (Homo sapiens (Human), UniProt P28223); experiment: 5-HT2A receptor binding inhibition test ([3H]-Ketanserin); details: Jump-In HEK cell membrane
Procedure, shortened: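 HEK cell membranes expressing human recombinant receptor were incubated with [3H]-ketanserin near its Kd in Tris-HCl 50 mmol/L pH 7.4 buffer (0.1% BSA) for 1.5 h at 25° C, then filtered on GF/B. Non-specific binding was defined with […] serotonin; Ki came from dose-response curves.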

[2] = target: human recombinant 5-HT2C receptor (Homo sapiens (Human), UniProt P28335); experiment: 5-HT2C receptor binding inhibition test ([3H]-Mesulergine); details: Jump-In HEK cell membrane, [3H]-Mesulergine
Metabolic stability test = format: in vitro ADME; details: human hepatic microsomes, 0.5 μmol/L, 30 minutes, 37° C., NADPH (oxidative reaction)
Method: Test Example 6-2: Metabolic Stability Test
Using commercially available pooled human hepatic microsomes, a compound according to the present invention was reacted for a constant time, and a remaining rate was calculated by comparing a reacted sample and an unreacted sample, thereby, a degree of metabolism of the compound according to the present invention in liver was evaluated.
A reaction was performed (oxidative reaction) at 37° C. for 0 minutes or 30 minutes in the presence of 1 mmol/L NADPH in 0.2 mL of a buffer (50 mmol/L Tris-HCl pH 7.4, 150 mmol/L potassium chloride, 10 mmol/L magnesium chloride) containing 0.5 mg protein/mL of human hepatic microsomes. After the reaction, 70 μL of the reaction solution was added to 140 μL of a solution of methanol/acetonitrile=1/1 (v/v), mixed and centrifuged at 3000 rpm for 15 minutes. The compound according to the present invention in the supernatant was quantified by LC/MS/MS or Solid Phase Extraction (SPE)/MS, and a remaining rate of the compound according to the present invention after the reaction was calculated, letting a compound amount at 0 minute reaction time be 100%.

[3] = target: human ether-a-go-go related gene (hERG) channel (Homo sapiens (Human), UniProt Q12809); experiment: hERG test (FluxOR potassium channel assay, FLIPR); format: cell-based; details: CHO cells expressing hERG channel, thallium flux fluorescence
Method: Test Example 3-2: hERG Test
For the purpose of evaluating risk of an electrocardiogram QT interval prolongation of the compound of the present invention, effects of the compound were studied by evaluating the activity of potassium channel using CHO cells expressing human ether-a-go-go related gene (hERG) channel.
Evaluation was performed using a FluxORII Green Potassium IonCgannel Assay kit (Invitrogen: Molecular Probes).
Cells were seeded in a 384-assay plate (8000 cells/well/40 μL) and incubated (37° C., 5% CO2) overnight. After replacing the medium with a Wash buffer (1×HBSS, 20 mM HEPES) with a microplate washer, a fluorescent indicator was added to the medium and allowed to incubate (37° C., 5% CO2) for 1 hour for incorporation of the fluorescent indicator into cells.
A cell plate was placed on a cell-based kinetic assay system FLIPR (Molecular Devices, LLC.), and the compound was added to the cells so as to have a desired concentration and reacted for 10 minutes. When a mixed solution of potassium and thallium as a stimulator was added thereto, the potassium channel was opened, and thallium that flowed into the cells bound to the fluorescent indicator, so that the intracellular fluorescence signal increased, and the potassium channel current was detected as a fluorescence signal. […] Then, the inhibition rate was calculated from the signal intensity at each concentration. IC50 was calculated from the inhibition rate at each concentration.

[4] = read-out: human serotonin 5-HT2A receptor binding activity, Ki value
[5] = read-out: human serotonin 5-HT2C receptor binding inhibitory activity, Ki value

Chain of human recombinant 5-HT2C receptor (P28335 33-458): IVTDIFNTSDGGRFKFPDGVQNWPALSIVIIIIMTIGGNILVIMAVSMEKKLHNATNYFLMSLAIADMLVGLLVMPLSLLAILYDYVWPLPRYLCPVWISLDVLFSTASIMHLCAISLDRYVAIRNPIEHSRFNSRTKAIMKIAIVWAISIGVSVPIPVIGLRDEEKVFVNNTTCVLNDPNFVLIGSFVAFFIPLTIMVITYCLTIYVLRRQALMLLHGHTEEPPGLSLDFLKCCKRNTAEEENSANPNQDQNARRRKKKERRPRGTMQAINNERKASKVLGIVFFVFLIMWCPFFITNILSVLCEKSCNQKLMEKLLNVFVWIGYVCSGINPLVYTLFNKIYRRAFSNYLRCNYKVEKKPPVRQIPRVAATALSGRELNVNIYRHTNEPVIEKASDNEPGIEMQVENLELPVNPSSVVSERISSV
Chain of human recombinant 5-HT2A receptor (P28223 whole entry): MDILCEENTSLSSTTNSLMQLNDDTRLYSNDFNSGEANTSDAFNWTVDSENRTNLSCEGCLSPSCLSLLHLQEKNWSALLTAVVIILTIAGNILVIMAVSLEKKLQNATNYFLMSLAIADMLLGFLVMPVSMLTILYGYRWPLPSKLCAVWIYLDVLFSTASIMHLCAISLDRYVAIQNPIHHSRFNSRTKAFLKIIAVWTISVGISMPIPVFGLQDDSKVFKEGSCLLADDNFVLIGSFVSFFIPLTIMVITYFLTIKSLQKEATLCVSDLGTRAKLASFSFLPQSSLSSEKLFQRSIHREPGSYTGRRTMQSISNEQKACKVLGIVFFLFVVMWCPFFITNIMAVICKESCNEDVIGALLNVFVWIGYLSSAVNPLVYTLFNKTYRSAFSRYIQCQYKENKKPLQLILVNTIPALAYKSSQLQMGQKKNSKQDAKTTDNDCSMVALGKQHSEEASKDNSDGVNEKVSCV
Chain of human ether-a-go-go related gene (hERG) channel (Q12809 whole entry): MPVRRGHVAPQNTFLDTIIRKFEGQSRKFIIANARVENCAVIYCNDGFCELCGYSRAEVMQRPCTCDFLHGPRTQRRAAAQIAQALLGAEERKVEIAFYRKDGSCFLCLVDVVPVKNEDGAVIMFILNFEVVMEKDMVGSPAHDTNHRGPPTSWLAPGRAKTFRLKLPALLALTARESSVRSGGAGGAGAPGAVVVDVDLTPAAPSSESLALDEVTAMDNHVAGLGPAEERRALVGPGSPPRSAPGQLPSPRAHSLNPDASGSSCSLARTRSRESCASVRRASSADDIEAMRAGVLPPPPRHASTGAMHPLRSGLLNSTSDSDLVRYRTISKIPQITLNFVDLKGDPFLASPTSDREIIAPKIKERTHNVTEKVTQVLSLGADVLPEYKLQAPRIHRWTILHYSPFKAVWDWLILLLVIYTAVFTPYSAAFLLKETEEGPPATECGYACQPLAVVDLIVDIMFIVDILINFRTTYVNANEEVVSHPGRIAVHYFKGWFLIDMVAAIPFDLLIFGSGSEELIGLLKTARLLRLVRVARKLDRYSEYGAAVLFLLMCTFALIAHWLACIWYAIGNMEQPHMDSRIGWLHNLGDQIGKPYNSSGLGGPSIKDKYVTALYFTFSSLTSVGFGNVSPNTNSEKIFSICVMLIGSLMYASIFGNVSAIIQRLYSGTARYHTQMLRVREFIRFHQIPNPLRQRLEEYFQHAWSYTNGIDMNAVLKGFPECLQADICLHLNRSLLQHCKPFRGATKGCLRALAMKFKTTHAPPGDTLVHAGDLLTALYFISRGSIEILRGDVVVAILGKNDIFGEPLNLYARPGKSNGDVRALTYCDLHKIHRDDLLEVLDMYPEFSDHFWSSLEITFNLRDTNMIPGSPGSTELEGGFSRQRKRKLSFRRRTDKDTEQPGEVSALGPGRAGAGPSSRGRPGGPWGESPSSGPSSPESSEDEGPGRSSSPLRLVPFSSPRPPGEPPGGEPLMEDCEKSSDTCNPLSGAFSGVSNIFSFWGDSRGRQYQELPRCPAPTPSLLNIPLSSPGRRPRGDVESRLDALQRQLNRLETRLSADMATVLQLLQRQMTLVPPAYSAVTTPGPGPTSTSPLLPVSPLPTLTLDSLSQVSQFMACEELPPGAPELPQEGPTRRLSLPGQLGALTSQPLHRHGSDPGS

SMILES | pKi ([1]; read-out: h-5-HT2A Ki) | pKi ([2]; read-out: h-5-HT2C Ki) | remaining rate of the compound (Metabolic stability test) [%] | pKi [1, 4] | pKi [2, 5] | pIC50 [3]
CC(C)COc1ccc(CN(Cc2ccc(F)cn2)C(=O)NC2CCN(C)CC2)cc1 [Compound I-016] | > 8.00 | > 8.00 | 99.6 | – | – | –
CC(C)COc1ccc(CN(Cc2ccn(C)n2)C(=O)N[C@H]2CCNCC23CC3)cc1 [Compound I-028] | > 8.00 | > 8.00 | 90.2 | – | – | –
CC(C)COc1ccc(CN(Cc2ccn(C)n2)C(=O)NC2CCN(C)CC2)cc1 [Compound I-043] | – | – | 85.0 | 8.67 | 8.51 | –
Cc1nc(CN(Cc2ccc(OCC(C)C)cc2)C(=O)NC2CCN(C)CC2)co1 [Compound I-077] | > 8.00 | > 8.00 | 85.3 | – | – | –
Cc1nc(CN(Cc2ccc(OCC(C)C)cc2)C(=O)OC2CCN(C)CC2)co1 [Compound I-081] | > 8.00 | > 8.00 | – | – | – | < 4.28
CC(C)COc1ccc(CN(Cc2ccn(C)n2)C(=O)OC2CCN(C)CC2)cc1 [Compound I-082] | 7.00 to 8.00 | 7.00 to 8.00 | – | – | – | < 4.28
Cc1cc(CN(Cc2ccc(OCC(C)C)cc2)C(=O)OC2CCN(C)CC2)nn1C [Compound I-083] | 7.00 to 8.00 | – | – | – | – | < 4.28

Now from value to molecule, other results behind:

pKi ([1]; read-out: h-5-HT2A Ki) | pKi ([2]; read-out: h-5-HT2C Ki) | remaining rate of the compound (Metabolic stability test) [%] | pKi [1, 4] | pKi [2, 5] | SMILES | pIC50 [3]
– | – | – | 8.58 | 8.24 | CC(C)COc1ccc(CN(Cc2cnn(C)n2)C(=O)OC2CCN(C)CC2)cc1 [Compound I-084] | < 4.28
– | – | 75.5 | 9.30 | 9.62 | CCCCOc1ccc(CN(Cc2coc(C)n2)C(=O)NC2CCN(C)CC2)cc1 [Compound I-086] | –
> 8.00 | > 8.00 | 80.0 | – | – | Cc1nc(CN(Cc2ccc(OCC(F)(F)C(F)(F)F)cc2)C(=O)NC2CCN(C)CC2)co1 [Compound I-088] | –
> 8.00 | > 8.00 | – | – | – | CCCCOc1ccc(CN(Cc2coc(C)n2)C(=O)CC2CCN(C)CC2)cc1 [Compound I-099] | 4.33
– | – | 97.3 | 9.19 | 9.39 | CCCCOc1ccc(CN(Cc2cnn(C)n2)C(=O)NC2CCN(C)CC2)c(F)c1 [Compound I-102] | –

— patent US20240083872A1, “CYCLIC AMINE DERIVATIVES HAVING SEROTONIN RECEPTOR BINDING ACTIVITY” (Shionogi & Co., Ltd., priority 2020, published 2024)
